Test results as given in PMC7100886 (Cell Cycle, 2020).
Ends that are not written are not given here. * marks the point of attachment. Biotin = O=C1N[C@H]2[C@H](CS[C@H]2CCCCC(=O)*)N1

Key:
BT-549 cells = details: RAD51 inhibitor; cited from earlier work
c-Jun = c-Jun (Homo sapiens, UniProt P05412); details: cited from earlier work
[1] = molecular target: His-tagged recombinant c-Jun (UniProt P05412 1-331); experiment: BLI
Chain of His-tagged recombinant c-Jun (P05412 whole entry): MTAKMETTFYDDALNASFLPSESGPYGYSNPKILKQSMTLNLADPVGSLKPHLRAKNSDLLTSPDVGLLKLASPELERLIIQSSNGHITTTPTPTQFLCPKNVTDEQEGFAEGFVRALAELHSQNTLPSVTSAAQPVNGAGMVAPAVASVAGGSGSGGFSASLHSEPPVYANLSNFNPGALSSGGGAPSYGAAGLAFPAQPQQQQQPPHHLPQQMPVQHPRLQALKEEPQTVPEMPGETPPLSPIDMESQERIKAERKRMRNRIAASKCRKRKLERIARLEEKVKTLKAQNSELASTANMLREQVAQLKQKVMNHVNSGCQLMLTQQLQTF

Chain of c-Jun (P05412 whole entry): as above

In the case of O=C1C(Cl)=C(N2CCOCC2)C(=O)N1c1ccc(Cl)c(Cl)c1 [RI-1], the “effect on efficiency of double stranded DNA break repair” value (BT-549 cells) is listed as “little to no effect”.

For CC[C@]1(O)C[C@@H]2CN(CCc3c([nH]c4ccccc34)[C@@](C(=O)OC)(c3cc4c(cc3OC)N(C)[C@H]3[C@@](O)(C(=O)OC)[C@H](OC(C)=O)[C@]5(CC)C=CCN6CC[C@]43[C@@H]65)C2)C1 [Vinblastine], the p21 (c-Jun) is given as “decrease in p21” and the “phosphorylated c-Jun” value (c-Jun) is given as “increasing phosphorylated c-Jun”.

B1: CAPER Peptide HCC1.4 (peptide)
peptide: Biotin-YGRKKRRQRRRRLQLMARLAEGTGLQIPPAAQQALQMSGSLAFGAVAEFSFVIDLQ
B1 gave a Kd [1] of 25.6 nM.

B2: CAPER Peptide HCC1.3 (peptide)
peptide: Biotin-YGRKKRRQRRRRLQLMARLAEGTGLQIPPAAQQALQMSGSLAFGAVADLQTRLSQQ
B2 gave a Kd [1] of 8.89 nM.
